Assay results as given in patent US8722849B2, “Polypeptides” (Novo Nordisk A/S, priority 2011, dated 2014).
Values after ≈ are worked out from the molar mass of the structure shown. Read-outs that look alike come from different tables or passages of the source. Starred links: 1 amine or outer side, 2 acyl side, 3 side chain; linkers in the order of their positions; H or OH if unused. Positions of bridges follow the written chain, without caps; N, C: chain ends. Residues, ends and D or L forms follow the SMILES beside them. *: point of attachment. C20 diacid = O=C(O)CCCCCCCCCCCCCCCCCCC(=O)*; γGlu = O=C(O)[C@H](CCC(=O)[*:2])N[*:1]

Legend:
[1] = target: T1, human amylin receptor (amylin 3(a) receptor: human calcitonin receptor + RAMP-3) (Homo sapiens, UniProt O60896+P30988); experiment: Assay (II)a functional CRE-luciferase assay, human amylin receptor; type: cell-based; details: Table 2; BHK amylin 3(a)-receptor/CRE-luc cells
T1 construct: expressed in transfected cells; host or cells: BHK570
T1 sequence (P30988 25-474): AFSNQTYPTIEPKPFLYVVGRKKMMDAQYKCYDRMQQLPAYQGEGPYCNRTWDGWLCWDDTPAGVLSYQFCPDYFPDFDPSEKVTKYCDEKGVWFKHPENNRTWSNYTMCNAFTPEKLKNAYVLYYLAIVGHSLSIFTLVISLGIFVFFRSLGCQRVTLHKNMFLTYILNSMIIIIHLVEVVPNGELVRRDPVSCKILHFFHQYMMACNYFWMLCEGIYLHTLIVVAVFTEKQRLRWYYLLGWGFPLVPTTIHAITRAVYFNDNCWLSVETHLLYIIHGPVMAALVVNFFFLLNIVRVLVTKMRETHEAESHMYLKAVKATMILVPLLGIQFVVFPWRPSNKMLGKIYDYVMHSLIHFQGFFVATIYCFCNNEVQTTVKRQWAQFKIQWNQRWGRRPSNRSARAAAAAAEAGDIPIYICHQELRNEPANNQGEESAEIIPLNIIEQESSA
T1 sequence (O60896 24-148 partner): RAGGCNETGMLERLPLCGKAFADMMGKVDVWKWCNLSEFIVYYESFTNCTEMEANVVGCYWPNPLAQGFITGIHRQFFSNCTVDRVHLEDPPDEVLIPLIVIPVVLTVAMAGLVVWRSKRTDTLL

[2] = target: T2, human calcitonin receptor (Homo sapiens, UniProt P30988); experiment: Assay (II)a functional CRE-luciferase assay, human calcitonin receptor; type: cell-based; details: Table 7; human calcitonin (CTa) receptor
T2 construct: expressed in transfected cells; host or cells: BHK570
T2 sequence (P30988 25-474): T1 sequence (P30988 25-474)

[3] = target: T3, rat amylin 3(a) receptor (rat calcitonin(a) receptor + rat RAMP3) (Rattus norvegicus, UniProt P32214+Q9JJ73); experiment: Assay (II)b functional cAMP FlashPlate assay, rat amylin receptor; type: cell-based; details: Table 11
T3 construct: expressed in transfected cells; host or cells: BHK tk'ts 13
T3 sequence (P32214 25-479 isoform P32214-2 limits assumed): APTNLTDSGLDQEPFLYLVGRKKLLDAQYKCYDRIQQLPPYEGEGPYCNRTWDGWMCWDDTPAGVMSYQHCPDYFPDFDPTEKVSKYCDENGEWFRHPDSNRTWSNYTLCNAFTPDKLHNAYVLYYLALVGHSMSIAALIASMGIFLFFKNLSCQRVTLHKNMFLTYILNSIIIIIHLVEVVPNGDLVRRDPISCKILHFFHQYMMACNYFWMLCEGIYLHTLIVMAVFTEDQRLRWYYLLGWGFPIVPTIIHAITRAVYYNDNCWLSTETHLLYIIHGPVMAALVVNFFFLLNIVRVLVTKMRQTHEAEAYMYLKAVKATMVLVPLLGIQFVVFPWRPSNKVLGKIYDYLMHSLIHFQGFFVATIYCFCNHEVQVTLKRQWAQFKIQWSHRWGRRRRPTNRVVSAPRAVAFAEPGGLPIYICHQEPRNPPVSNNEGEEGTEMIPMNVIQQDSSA
T3 sequence (Q9JJ73 23-147 partner): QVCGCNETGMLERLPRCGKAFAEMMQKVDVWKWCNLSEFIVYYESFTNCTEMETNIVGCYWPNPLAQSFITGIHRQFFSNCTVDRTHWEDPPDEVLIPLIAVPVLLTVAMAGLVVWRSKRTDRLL
Method in brief: (§1)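 cAMP accumulation in transiently transfected BHK tk'ts 13 cells, 100.000 cells/well, expressing rat calcitonin(a) receptor or its RAMP3 co-expression form (amylin 3(a)): 30 min stimulation with IBMX, 24 hours post-transfection. Readout by competition of cellular versus radiolabelled cAMP in FlashPlates, scintillation counted after 3 h.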

[4] = target: T4, rat calcitonin (a) receptor (Rattus norvegicus, UniProt P32214); experiment: Assay (II)b functional cAMP FlashPlate assay, rat calcitonin receptor; type: cell-based; details: Table 11; read-out: CTa receptor rat EC50
T4 construct: expressed in transfected cells; host or cells: BHK tk'ts 13
T4 sequence (P32214 25-479 isoform P32214-2 limits assumed): T3 sequence (P32214 25-479 isoform P32214-2 limits assumed)
Method in brief: as §1

[5] = Assay (IV) determination of solubility; type: physicochemical
Method in brief: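 Stock ~500 nmol/ml in water; 1:1 with 100 mM buffer, pH 3.0–8.0 (glycylglycine ≤5.0, bistrispropane ≥6.0); 18 h RT; spin; HPLC quantitation of soluble polypeptide.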

[6] = Assay (IX) pK, determination of T½ in mini-pig; type: in vivo, Göttingen mini-pigs; details: male, Göttingen, iv, 2 nmol/kg; minipig; plasma terminal half-life
[7] = bistrispropane buffer, pH 6, pH 6.0, read-out: Solubility pH 6.0
[8] = bistrispropane buffer, pH 6.5, pH 6.5, read-out: Solubility pH 6.5
[9] = bistrispropane buffer, pH 7, pH 7.0, read-out: Solubility pH 7.0
[10] = bistrispropane buffer, pH 7.5, pH 7.5, read-out: Solubility pH 7.5
[11] = bistrispropane buffer, pH 8, pH 8.0, read-out: Solubility pH 8.0
[12] = glycylglycine buffer, pH 3, pH 3.0, read-out: Solubility pH 3.0
[13] = glycylglycine buffer, pH 4, pH 4.0, 18 hours at room temperature, Table 2, read-out: Solubility pH 4.0
[14] = glycylglycine buffer, pH 4, pH 4.0, read-out: Solubility pH 4.0
[15] = glycylglycine buffer, pH 5, pH 5.0, read-out: Solubility pH 5.0
[16] = bistrispropane buffer, pH 7, pH 7.0, 18 hours at room temperature, Table 3, read-out: Solubility pH 7.0
[17] = bistrispropane buffer, pH 7, pH 7.0, Table 8, read-out: Solubility pH 7.0

EC50 [1]	EC50 [2]	EC50 [3]	EC50 [4]	solubility at 18 h [5, 7]	solubility at 18 h [5, 8]	solubility at 18 h [5, 9]	solubility at 18 h [5, 10]	solubility at 18 h [5, 11]	solubility at 18 h [5, 12]	solubility at 18 h [5, 13]	solubility at 18 h [5, 14]	solubility at 18 h [5, 15]	half-life [6]	solubility at 18 h [5, 16]	solubility at 18 h [5, 17]	solubility at 18 h ([5]; bistrispropane buffer, pH 7, pH 7.0, Table 9, read-out: Solubility pH 7.0)	solubility at 18 h ([5]; bistrispropane buffer, pH 7.5, pH 7.5, Table 9, read-out: Solubility pH 7.5)	SMILES
85.3 pM	208 pM	88.5 pM	962 pM	> 200 µM	44 µM (≈ 209 µg/mL)	29 µM (≈ 137 µg/mL)	157 µM (≈ 744 µg/mL)	> 200 µM	> 200 µM	> 200 µM	> 200 µM	> 200 µM	106 h	–	–	–	–	CC[C@H](C)[C@H](NC(=O)[C@@H]1CCCN1C(=O)CNC(=O)[C@H](Cc1ccccc1)NC(=O)[C@H](CC(N)=O)NC(=O)[C@H](CC(N)=O)NC(=O)[C@H](CO)NC(=O)[C@H](CO)NC(=O)[C@H](Cc1cnc[nH]1)NC(=O)[C@H](Cc1cnc[nH]1)NC(=O)[C@H](CC(C)C)NC(=O)[C@H](Cc1ccccc1)NC(=O)[C@H](CCC(=O)O)NC(=O)[C@H](C)NC(=O)[C@H](CC(C)C)NC(=O)[C@H](CCCNC(=N)N)NC(=O)[C@H](CCC(N)=O)NC(=O)[C@@H](NC(=O)[C@H](C)NC(=O)[C@@H]1CSSC[C@H](NC(=O)[C@H](Cc2cnc[nH]2)NC(=O)[C@H](Cc2cnc[nH]2)NC(=O)[C@H](Cc2cnc[nH]2)NC(=O)CC[C@H](NC(=O)CCCCCCCCCCCCCCCCCCC(=O)O)C(=O)O)C(=O)N[C@@H](CC(N)=O)C(=O)N[C@@H]([C@@H](C)O)C(=O)N[C@@H](C)C(=O)N[C@@H]([C@@H](C)O)C(=O)N1)[C@@H](C)O)C(=O)N[C@@H](CC(C)C)C(=O)N1CCC[C@H]1C(=O)N1CCC[C@H]1C(=O)N[C@H](C(=O)N[C@@H](CC(N)=O)C(=O)N[C@H](C(=O)NCC(=O)N[C@@H](CO)C(=O)N[C@@H](CC(N)=O)C(=O)N[C@H](C(=O)N[C@@H](Cc1ccc(O)cc1)C(N)=O)[C@@H](C)O)C(C)C)[C@@H](C)O [Example 11, N-alpha-[(S)-4-Carboxy-4-(19-carboxynonadecanoylamino)butyryl]-His-His-[His1,Glu14,His17]-pramlintide] ({C20 diacid-γGlu}-HHHCNTATCATQRLAEFLHHSSNNFGPILPPTNVGSNTY-NH2; disulfide 4-9)
62 pM	53.7 pM	160 pM	76 pM	> 200 µM	> 200 µM	> 200 µM	> 200 µM	> 200 µM	> 200 µM	> 200 µM	> 200 µM	> 200 µM	105 h	> 200 µM	> 200 µM	> 200 µM	> 200 µM	CC[C@H](C)[C@H](NC(=O)[C@@H]1CCCN1C(=O)CNC(=O)[C@H](Cc1ccccc1)NC(=O)[C@H](CC(N)=O)NC(=O)[C@H](CC(N)=O)NC(=O)[C@H](CO)NC(=O)[C@H](CO)NC(=O)[C@H](Cc1c[nH]cn1)NC(=O)[C@H](Cc1cnc[nH]1)NC(=O)[C@H](CC(C)C)NC(=O)[C@H](Cc1ccccc1)NC(=O)[C@H](CCC(=O)O)NC(=O)[C@H](C)NC(=O)[C@H](CC(C)C)NC(=O)[C@H](CCCNC(=N)N)NC(=O)[C@H](CCC(N)=O)NC(=O)[C@@H](NC(=O)[C@H](C)NC(=O)[C@@H]1CSSC[C@H](NC(=O)[C@H](CCCCN)NC(=O)CC[C@H](NC(=O)CCCCCCCCCCCCCCCCCCC(=O)O)C(=O)O)C(=O)N[C@@H](CC(N)=O)C(=O)N[C@@H]([C@@H](C)O)C(=O)N[C@@H](C)C(=O)N[C@@H]([C@@H](C)O)C(=O)N1)[C@@H](C)O)C(=O)N[C@@H](CC(C)C)C(=O)N1CCC[C@H]1C(=O)N1CCC[C@H]1C(=O)N[C@H](C(=O)N[C@@H](CC(N)=O)C(=O)N[C@H](C(=O)NCC(=O)N[C@@H](CO)C(=O)N[C@@H](CC(N)=O)C(=O)N[C@H](C(=O)N1CCC[C@H]1C(N)=O)[C@@H](C)O)C(C)C)[C@@H](C)O [Example 52, N-alpha-[(S)-4-Carboxy-4-(19-carboxynonadecanoylamino)butyryl]-[Glu14,His17,Pro37]-pramlintide] ({C20 diacid-γGlu}-KCNTATCATQRLAEFLHHSSNNFGPILPPTNVGSNTP-NH2; disulfide 2-7)
92.5 pM	67 pM	121 pM	109 pM	> 200 µM	> 200 µM	> 200 µM	> 200 µM	> 200 µM	> 200 µM	> 200 µM	> 200 µM	> 200 µM	–	> 200 µM	> 200 µM	–	–	CC[C@H](C)[C@H](NC(=O)[C@@H]1CCCN1C(=O)CNC(=O)[C@H](Cc1ccccc1)NC(=O)[C@H](CC(N)=O)NC(=O)[C@H](CC(N)=O)NC(=O)[C@H](CO)NC(=O)[C@H](CO)NC(=O)[C@H](Cc1c[nH]cn1)NC(=O)[C@H](Cc1cnc[nH]1)NC(=O)[C@H](CC(C)C)NC(=O)[C@H](Cc1ccccc1)NC(=O)[C@H](CCC(=O)O)NC(=O)[C@H](C)NC(=O)[C@H](CC(C)C)NC(=O)[C@H](CCCNC(=N)N)NC(=O)[C@H](CCC(N)=O)NC(=O)[C@@H](NC(=O)[C@H](C)NC(=O)[C@@H]1CSSC[C@H](NC(=O)[C@H](Cc2cnc[nH]2)NC(=O)CC[C@H](NC(=O)CCCCCCCCCCCCCCCCCCC(=O)O)C(=O)O)C(=O)N[C@@H](CC(N)=O)C(=O)N[C@@H]([C@@H](C)O)C(=O)N[C@@H](C)C(=O)N[C@@H]([C@@H](C)O)C(=O)N1)[C@@H](C)O)C(=O)N[C@@H](CC(C)C)C(=O)N1CCC[C@H]1C(=O)N1CCC[C@H]1C(=O)N[C@H](C(=O)N[C@@H](CC(N)=O)C(=O)N[C@H](C(=O)NCC(=O)N[C@@H](CO)C(=O)N[C@@H](CC(N)=O)C(=O)N[C@H](C(=O)N1CCC[C@H]1C(N)=O)[C@@H](C)O)C(C)C)[C@@H](C)O [Example 84, N-alpha-[(S)-4-Carboxy-4-(19-carboxynonadecanoylamino)butyryl]-[His1,Glu14,His17,Pro37]-pramlintide] ({C20 diacid-γGlu}-HCNTATCATQRLAEFLHHSSNNFGPILPPTNVGSNTP-NH2; disulfide 2-7)
